Measurements as given in PubChem BioAssay AID1259407 (Chemical Carcinogenesis Research Information System (CCRIS), 2018).
Active and inactive are the calls of the source. How the calls were made is not given here.

System: CCRIS mutagenicity, Ames/micronucleus/aberration tests
Test: CCRIS mutagenicity studies

SMILES | mutagenic call (End Point: IN VITRO CHROMOSOMAL ABERRATIONS, Test System: CHL CELLS, Metabolic Activation: NONE) | mutagenic call (End Point: IN VITRO CHROMOSOMAL ABERRATIONS, Test System: CHL CELLS, Metabolic Activation: RAT, LIVER, S-9, SODIUM PHENOBARBITAL AND 5,6-BENZOFLAVONE) | mutagenic call (Test System: AMES SALMONELLA TYPHIMURIUM, Strain/Indicator: TA102, Metabolic Activation: RAT, LIVER, S-9, PHENOBARBITAL AND 5,6-BENZOFLAVONE, Method: STANDARD PLATE) | mutagenic call (Test System: AMES SALMONELLA TYPHIMURIUM, Strain/Indicator: TA2638, Metabolic Activation: RAT, LIVER, S-9, PHENOBARBITAL AND 5,6-BENZOFLAVONE, Method: STANDARD PLATE) | mutagenic call (Test System: E. COLI, Strain/Indicator: WP2 (PKM101), Metabolic Activation: RAT, LIVER, S-9, PHENOBARBITAL AND 5,6-BENZOFLAVONE, Method: STANDARD PLATE) | mutagenic call (Test System: E. COLI, Strain/Indicator: WP2 UVRA (PKM101), Metabolic Activation: RAT, LIVER, S-9, PHENOBARBITAL AND 5,6-BENZOFLAVONE, Method: STANDARD PLATE) | mutagenic call (Test System: AMES SALMONELLA TYPHIMURIUM, Strain/Indicator: TA98, Metabolic Activation: NONE, Method: STANDARD PLATE) | mutagenic call (Test System: AMES SALMONELLA TYPHIMURIUM, Strain/Indicator: TA98, Metabolic Activation: RAT, LIVER, S-9, AROCLOR 1254, Method: STANDARD PLATE) | mutagenic call (Test System: AMES SALMONELLA TYPHIMURIUM, Strain/Indicator: TA100, Metabolic Activation: NONE, Method: STANDARD PLATE) | mutagenic call (Test System: AMES SALMONELLA TYPHIMURIUM, Strain/Indicator: TA100, Metabolic Activation: RAT, LIVER, S-9, AROCLOR 1254, Method: STANDARD PLATE) | mutagenic call (Test System: AMES SALMONELLA TYPHIMURIUM, Strain/Indicator: TA1535, Metabolic Activation: NONE, Method: STANDARD PLATE) | mutagenic call (Test System: AMES SALMONELLA TYPHIMURIUM, Strain/Indicator: TA1535, Metabolic Activation: RAT, LIVER, S-9, AROCLOR 1254, Method: STANDARD PLATE) | mutagenic call (Test System: AMES SALMONELLA TYPHIMURIUM, Strain/Indicator: TA1537, Metabolic Activation: NONE, Method: STANDARD PLATE) | mutagenic call (Test System: AMES SALMONELLA TYPHIMURIUM, Strain/Indicator: TA1537, Metabolic Activation: RAT, LIVER, S-9, AROCLOR 1254, Method: STANDARD PLATE)
COC(=O)C(Cl)Cl | active; positive (structural changes); precipitation of test chemical observed above 1.6 | active; positive (structural changes); precipitation of test chemical observed above 2.0 | active; positive | active; positive | active; positive | active; positive |  |  |  |  |  |  |  | 
CSCC[C@H](NC(=O)[C@@H](N)Cc1c[nH]c2ccccc12)C(=O)N[C@@H](CC(=O)O)C(=O)N[C@@H](Cc1ccccc1)C(N)=O |  |  |  |  |  |  | inactive; negative | inactive; negative | inactive; negative | inactive; negative | inactive; negative | inactive; negative | inactive; negative | inactive; negative
